A word on the IC50: it is the concentration at which inhibition is half-maximal. Low readings indicate greater potency, high ones weaker potency.

Chain of human NaV1.8 (Q9Y5Y9 whole entry): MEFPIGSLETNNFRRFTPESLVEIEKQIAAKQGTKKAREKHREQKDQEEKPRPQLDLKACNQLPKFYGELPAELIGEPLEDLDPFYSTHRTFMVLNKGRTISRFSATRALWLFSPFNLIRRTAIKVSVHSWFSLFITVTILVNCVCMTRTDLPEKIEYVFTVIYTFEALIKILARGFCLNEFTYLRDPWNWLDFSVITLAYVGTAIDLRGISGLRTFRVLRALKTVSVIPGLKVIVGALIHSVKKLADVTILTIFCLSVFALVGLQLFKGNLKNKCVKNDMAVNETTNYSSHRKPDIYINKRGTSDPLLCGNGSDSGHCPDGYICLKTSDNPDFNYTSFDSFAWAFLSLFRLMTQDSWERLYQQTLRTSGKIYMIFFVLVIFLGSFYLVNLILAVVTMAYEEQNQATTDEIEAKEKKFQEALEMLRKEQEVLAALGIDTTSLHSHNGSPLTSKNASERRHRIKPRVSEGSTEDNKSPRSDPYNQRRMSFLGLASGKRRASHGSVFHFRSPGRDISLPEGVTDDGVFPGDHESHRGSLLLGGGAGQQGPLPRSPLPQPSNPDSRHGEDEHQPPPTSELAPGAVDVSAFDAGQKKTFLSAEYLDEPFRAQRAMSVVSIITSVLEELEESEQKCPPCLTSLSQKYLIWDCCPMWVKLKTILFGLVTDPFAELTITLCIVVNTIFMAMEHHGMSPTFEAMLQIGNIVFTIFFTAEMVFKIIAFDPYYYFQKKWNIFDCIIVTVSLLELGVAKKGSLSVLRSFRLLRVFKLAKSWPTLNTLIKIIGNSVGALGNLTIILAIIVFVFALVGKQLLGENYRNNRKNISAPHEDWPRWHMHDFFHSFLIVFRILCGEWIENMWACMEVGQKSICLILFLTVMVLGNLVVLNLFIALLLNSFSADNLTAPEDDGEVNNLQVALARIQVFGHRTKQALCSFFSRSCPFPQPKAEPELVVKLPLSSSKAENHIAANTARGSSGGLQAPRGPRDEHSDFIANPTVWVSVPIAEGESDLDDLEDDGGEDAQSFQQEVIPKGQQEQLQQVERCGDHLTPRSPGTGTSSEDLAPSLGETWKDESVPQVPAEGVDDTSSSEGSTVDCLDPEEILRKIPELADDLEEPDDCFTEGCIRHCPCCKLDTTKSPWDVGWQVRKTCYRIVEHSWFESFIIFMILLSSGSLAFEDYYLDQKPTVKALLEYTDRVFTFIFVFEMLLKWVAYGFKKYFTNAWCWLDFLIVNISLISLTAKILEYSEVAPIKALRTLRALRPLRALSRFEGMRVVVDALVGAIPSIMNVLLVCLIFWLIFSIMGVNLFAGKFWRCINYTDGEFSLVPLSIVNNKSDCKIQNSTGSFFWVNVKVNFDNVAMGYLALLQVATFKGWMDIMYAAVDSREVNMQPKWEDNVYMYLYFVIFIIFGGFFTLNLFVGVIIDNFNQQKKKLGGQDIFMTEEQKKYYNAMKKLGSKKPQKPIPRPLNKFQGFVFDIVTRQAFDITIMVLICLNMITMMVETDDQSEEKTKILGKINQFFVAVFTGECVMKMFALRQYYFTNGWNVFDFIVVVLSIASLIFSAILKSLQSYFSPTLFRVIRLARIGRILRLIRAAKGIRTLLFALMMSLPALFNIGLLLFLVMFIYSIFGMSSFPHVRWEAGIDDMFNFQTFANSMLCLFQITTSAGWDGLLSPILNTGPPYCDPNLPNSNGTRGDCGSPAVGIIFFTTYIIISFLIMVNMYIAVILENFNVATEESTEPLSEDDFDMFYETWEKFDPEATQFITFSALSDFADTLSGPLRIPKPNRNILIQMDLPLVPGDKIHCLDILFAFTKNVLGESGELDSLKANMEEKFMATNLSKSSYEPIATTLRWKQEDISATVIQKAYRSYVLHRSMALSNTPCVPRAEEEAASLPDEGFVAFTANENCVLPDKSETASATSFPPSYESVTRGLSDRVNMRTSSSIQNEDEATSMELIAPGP

For this assay, the target named is human NaV1.8 (Homo sapiens (Human), UniProt Q9Y5Y9). The assay can be described thus: Nav1.8 Qube automated patch-clamp assay. Type of assay: cell-based. As to conditions: human NaV1.8 stably expressed in HEK 293 cells; automated 384-well patch-clamp; resting or inactivated state not specified. The method in brief:
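IC50 values from Hill-equation fits of offline percent inhibition: the 1st pulse gave resting and the 10th pulse inactivated-state inhibition. Stimulus was a 10 s, 1 Hz train to 10 mV (holding −90 mV, −67 mV interpulse) applied at room temperature to HEK293 cells stably expressing human NaV1.8 (Qube).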
Compound `O=C1NC[C@@H](C(=O)NC(c2ccc(F)c(Cl)c2)c2csc(C3(C(F)(F)F)CC3)n2)N1` (single isomer, unassigned) [Example 16A, (S)-N-((R or S)-(3-choro-4-fluoro-phenyl)(2-(1-(trifluoromethyl)cyclopropyl)thiazol-4-yl)methyl)-2-oxoimidazolidine-4-carboxamide] yielded an IC50 of 1.1 nM.

`O=C1NC[C@@H](C(=O)NC(c2ccc(F)c(Cl)c2)[C@H]2CC[C@H](C(F)(F)F)CC2)N1` (single isomer, unassigned) [Example 32A, (4S)—N—((R or S)-(3-chloro-4-fluorophenyl)(trans-4-(trifluoromethyl)cyclohexyl)methyl)-2-oxoimidazolidine-4-carboxamide] displayed an IC50 of 3.4 nM.

For the compound `O=C1NC[C@@H](C(=O)NC(CC2CCCOC2)c2ccc(F)c(Cl)c2F)N1` (single isomer, unassigned) [Example 26C, (S)-N-((R or S)-1-(3-chloro-2,4-difluorophenyl)-2-((R or S)-tetrahydro-2H-pyran-3-yl)ethyl)-2-oxoimidazolidine-4-carboxamide], the IC50 was determined as 386 nM.

Regarding `Cc1nc2ccc(C(NC(=O)[C@@H]3CNC(=O)N3)c3ccc(Cl)cc3)cc2o1` (single isomer, unassigned) [Example 83B, (S)-N-((R or S)-(4-chlorophenyl)(2-methylbenzo[d]oxazol-6-yl)methyl)-2-oxoimidazolidine-4-carboxamide], the IC50 was 201 nM.

Compound `O=C1NC[C@@H](C(=O)NC(c2ccc(Cl)cc2)c2cnc(C(F)(F)F)[nH]2)N1` (single isomer, unassigned) [Example 22B, (S)—N—((R or S)-(4-chlorophenyl)(2-(trifluoromethyl)-1H-imidazol-4-yl)methyl)-2-oxoimidazolidine-4-carboxamide] showed an IC50 of 6410 nM.

`O=C1NC[C@@H](C(=O)NC(c2ccc(F)c(Cl)c2)C2Cc3ccc(F)cc32)N1` (stereo partly drawn) [Example 69, (4S)-N-((3-chloro-4-fluorophenyl)(4-fluorobicyclo[4.2.0]octa-1(6),2,4-trien-7-yl)methyl)-2-oxoimidazolidine-4-carboxamide] yielded an IC50 of 141 nM.

As to `Cc1nc2ccc(C(NC(=O)[C@@H]3CNC(=O)N3)c3ccc(Cl)cc3)cc2o1` (single isomer, unassigned) [Example 83A, (S)-N-((R or S)-(4-chlorophenyl)(2-methylbenzo[d]oxazol-6-yl)methyl)-2-oxoimidazolidine-4-carboxamide], the IC50 was 147 nM. The IC50 values of the last two compounds are within 1.5-fold of each other.

Turning to `O=C1NC[C@@H](C(=O)NC(c2cnc(C(F)(F)F)c(Cl)c2)c2ccc(F)c(C(F)(F)F)n2)N1` (single isomer, unassigned) [Example 14B, (4S)-N-{[R or S)-5-chloro-6-(trifluoro-methyl)pyridin-3-yl][5-fluoro-6-(trifluoro-methyl)pyridin-2-yl]methyl}-2-oxoimidazolidine-4-carboxamide], the IC50 worked out at 21 nM.

Regarding `N#Cc1ccc(C(NC(=O)[C@@H]2CNC(=O)N2)c2ccc(F)c(Cl)c2)cc1` (single isomer, unassigned) [Example 18B, (S)-N-((R or S)-(3-chloro-4-fluoro-phenyl)(4-cyano-phenyl)methyl)-2-oxoimidazolidine-4-carboxamide], 17 nM corresponded to half-maximal inhibition (IC50).

For the compound `O=C1NC[C@@H](C(=O)NC(c2cnc(C3CC3)c(Cl)c2)c2ccc(F)c(Cl)c2F)N1` (single isomer, unassigned) [Example 13A, (4S)-N-[((R or S)-5-chloro-6-cyclo-propylpyridin-3-yl)(3-chloro-2,4-difluoro-phenyl)methyl]-2-oxoimidazolidine-4-carboxamide], half-maximal inhibition (IC50) required 1.1 nM. This IC50 is about 15-fold lower than that of the compound before.

Compound `O=C1NC[C@@H](C(=O)NC(c2ccc(F)c(Cl)c2)c2ccc(Cl)c(C(F)(F)F)n2)N1` (single isomer, unassigned) [Example 62A, (S)-N-((R or S)-(3-chloro-4-fluorophenyl)(5-chloro-6-(trifluoromethyl)pyridin-2-yl)methyl)-2-oxoimidazolidine-4-carboxamide] registered an IC50 of 8 nM.

The compound `O=C1NC[C@@H](C(=O)NC(c2ccc(Cl)cc2)c2ccc(F)c(C(F)(F)F)c2)N1` (single isomer, unassigned) [Example 17B, (S)-N-((R or S)-(4-chloropehnyl)(4-fluoro-3-(trifluoro-methyl)phenyl)methyl)-2-oxoimidazolidine-4-carboxamide] came in with an IC50 of 7 nM.

`O=C1NC[C@@H](C(=O)NC(c2ccc(F)c(Cl)c2F)C2CCCCN2CC(F)(F)F)N1` (single isomer, unassigned) [Example 58A, (S)-N-((R or S)-(3-chloro-2,4-difluorophenyl) ((R or S)-1-(2,2,2-trifluoroethyl)piperidin-2-yl)methyl)-2-oxoimidazolidine-4-carboxamide] had an IC50 of 2010 nM. This IC50 is about 290-fold higher than that of the compound before.

For `CC1(C)CC(C(NC(=O)[C@@H]2CNC(=O)N2)c2ccc(Cl)cc2)CCN1CC(F)(F)F` (single isomer, unassigned) [Example 91A, (4S)—N—((R or S)(4-chlorophenyl)((R or S)2,2-dimethyl-1-(2,2,2-trifluoroethyl)piperidin-4-yl)methyl)-2-oxoimidazolidine-4-carboxamide], half-maximal inhibition (IC50) was put at 289 nM.

Consider `N#Cc1ccc(C(NC(=O)[C@@H]2CNC(=O)N2)c2ccc(F)c(Cl)c2)cc1` (single isomer, unassigned) [Example 18A, (S)-N-((R or S)-(3-chloro-4-fluoro-phenyl)(4-cyano-phenyl)methyl)-2-oxoimidazolidine-4-carboxamide], for which half-maximal inhibition (IC50) was put at 18 nM.

For `Cn1nc(C(F)(F)F)cc1C(NC(=O)[C@@H]1CNC(=O)N1)c1ccc(F)c(Cl)c1` (single isomer, unassigned) [Example 31A, (S)-N-((R or S)-(3-chloro-4-fluorophenyl)(1-methyl-3-(tri-fluoromethyl)-1H-pyrazol-5-yl)methyl)-2-oxoimidazolidine-4-carboxamide], inhibition was half-maximal at 5.2 nM (IC50).

Regarding `O=C1NC[C@@H](C(=O)NC(c2ccc(OC(F)(F)F)c(Cl)c2)c2cnn(C(F)(F)F)c2)N1` (single isomer, unassigned) [Example 41B, (S)—N—((R or S)-(3-chloro-4-(trifluoromethoxy)phenyl)(1-(trifluoromethyl)-1H-pyrazol-4-yl)-l3-methyl)-2-oxoimidazolidine-4-carboxamide], 16 nM corresponded to half-maximal inhibition (IC50).

As to `CC(N1CC(C)(C(NC(=O)[C@@H]2CNC(=O)N2)c2ccc(F)c(Cl)c2F)C1)C(F)(F)F` (single isomer, unassigned) [Example 65A, (S)—N—((R or S)-(3-chloro-2,4-difluorophenyl)(3-methyl-1-((R or S)-1,1,1-trifluoropropan-2-yl)azetidin-3-yl)methyl)-2-oxoimidazolidine-4-carboxamide], the midpoint of inhibition, the IC50, lay at 16200 nM.

The compound `O=C1NC[C@@H](C(=O)NC(CC2CCC(F)(F)CC2)c2ccc(F)c(Cl)c2F)N1` (single isomer, unassigned) [Example 25A, (S)-N-((R or S)-1-(3-chloro-2,4-difluorophenyl)-2-(4,4-difluorocyclohexyl)ethyl)-2-oxoimidazolidine-4-carboxamide] returned an IC50 of 22 nM.

In turn, `CC1(C)CC(C(NC(=O)[C@@H]2CNC(=O)N2)c2ccc(F)c(Cl)c2F)C1` (single isomer, unassigned) [Example 30A, (4S)-N-[(R or S)-(3-chloro-2,4-di-fluoro-phenyl)(3,3-dimethylcyclobutyl)meth-yl]-2-oxoimidazolidine-4-carboxamide] displayed an IC50 of 4.6 nM.

In the case of `O=C1NC[C@@H](C(=O)NC(c2ccc(Cl)cc2)c2cc(C(F)(F)F)c(F)cn2)N1` (single isomer, unassigned) [Example 59B, (S)-N-((R or S)-(4-chlorophenyl)(5-fluoro-4-(trifluoromethyl)pyridin-2-yl)methyl)-2-oxo-imidazolidine-4-carboxamide], the IC50 was 62 nM.

Compound `CN1CC(C(=O)NC(c2ccc(Cl)cc2)c2ccc(Cl)cc2)NC1=O` (single isomer, unassigned) [Example 10B, (R or S)-N-[bis(4-chlorophenyl)methyl]-1-methyl-2-oxoimidazolidine-4-carboxamide] showed an IC50 of 504 nM.

For `O=C1NC[C@@H](C(=O)NC(c2cnc(C(F)(F)F)c(Cl)c2)c2ccc(Cl)c(C(F)F)n2)N1` (single isomer, unassigned) [Example 3A, (S)—N—((R or S)-(5-chloro-6-(difluoromethyl)pyridin-2-yl)(5-chloro-6-(trifluoromethyl)pyridin-3-yl)methyl)-2-oxoimidazolidine-4-carboxamide], the IC50 was 9.7 nM.

For `CC(N1CC(C)(C(NC(=O)[C@@H]2CNC(=O)N2)c2ccc(F)c(Cl)c2F)C1)C(F)(F)F` (single isomer, unassigned) [Example 65B, (S)—N—((R or S)-(3-chloro-2,4-difluorophenyl)(3-methyl-1-((R or S)-1,1,1-trifluoropropan-2-yl)azetidin-3-yl)methyl)-2-oxoimidazolidine-4-carboxamide], the IC50 was 302 nM.

`O=C1NC[C@@H](C(=O)NC(COC2CCC(F)(F)CC2)c2ccc(F)c(Cl)c2)N1` (single isomer, unassigned) [Example 29B, (4S)-N-{1-((R or S)-3-chloro-4-fluorophenyl)-2-[(4,4-difluoro-cyclohexyl)oxy]ethyl}-2-oxoimidazolidine-4-carboxamide]: the midpoint of inhibition, the IC50, lay at 161 nM.

The compound `O=C1NC[C@@H](C(=O)NC(c2cnc(C(F)(F)F)c(Cl)c2)c2ccc(Cl)c(C(F)(F)F)n2)N1` (single isomer, unassigned) [Example 56B, (S)-N-((R or S)-(5-chloro-6-(trifluoromethyl)pyridin-2-yl)(5-chloro-6-(trifluoromethyl)pyridin-3-yl)methyl)-2-oxoimidazolidine-4-carboxamide] had an IC50 of 4.5 nM.

In turn, `O=C1NC[C@@H](C(=O)NC(c2ccc(Cl)cc2)c2cnc(C(F)(F)F)[nH]2)N1` (single isomer, unassigned) [Example 22A, (S)—N—((R or S)-(4-chlorophenyl)(2-(trifluoromethyl)-1H-imidazol-4-yl)methyl)-2-oxoimidazolidine-4-carboxamide] registered an IC50 of 373 nM.

The values are drawn from patent US20230312528A1, “2-OXO-IMIDAZOLIDINE-4-CARBOXAMIDES AS NAV1.8 INHIBITORS” (Merck Sharp & Dohme LLC, priority 2020, published 2023).
